{
  "source": "patent US6455761B1",
  "about": "“Agrobacterium-mediated transformation of turnip rape” (Helsinki University Licensing Ltd. Oy, priority 1997, dated 2002)",
  "key": {"[1]": {"system": "turnip rape plants cv. Valtti and Sisu", "experiment": "Transgenic shoot regeneration under antibiotic selection", "description": "(§1) Selection and regeneration. […] Thereafter the whole explants or cut callus pieces with the green nodules and primordia were transferred on hormone free MS medium, where nodules developed primordia and shoots. Silver nitrate in concentration 0-90 μM (0-15 mg/l) and porous paper tape for sealing of Petri dishes were used in transformation and regeneration of transgenic plants.\nSelection on kanamycin or hygromycin was applied immediately after co-cultivation of the explants with Agrobacteria, three days after beginning of the whole procedure. Antibiotics were used in concentrations 20-25 mg/l during all steps of regeneration and cultivation of transgenic plants.\nUsing nptII and hpt genes in transformation constructions provides the plants resistance to kanamycin and hygromycin, respectively. […] Because morfogenesis occurs mainly on the basal side of the stem segmets, explants are placed basal side down on the selection medium.\nTurnip rape plants cv. Valtti and Sisu were transformed with LBA4404 pGPTV-KAN-GUSint and LBA4404 pGPTV-HPT-GUSint.\nAnalysis of transformation. Green regenerated shoots were checked for GUS activity. Leaves or leaf pieces were prepared for histological GUS assay as described above."}, "explants of turnip rape": {"system": "explants of turnip rape", "description": "as §1\nShoot regeneration. Effects of different hormones on various explants of mature plants of turnip rape were tested in preliminary experiments to achieve sufficient shoot regeneration.\nSilver nitrate application and aeration. The use of silver nitrate in in vitro cultivation of turnip rape has often been reported as an essential factor for shoot regeneration (Chi et al. 1990; Hachey et al. 1991; Mukhopadhuay et al. 1992; Radke et al. 1992). […] We have examined the effect of silver nitrate on regeneration capacity of explants of turnip rape.\nSelection. To prevent Agrobacterium growth on the medium we used claforan (cefotaxim) 500 mg/l or carbenicillin 200 mg/l."}, "[2]": {"system": "inflorescence stem segments of turnip rape plants", "experiment": "Effect of cultivation factors on transformation of inflorescence stem segments by Agrobacterium LBA4404pGPTV-KAN-GUSint (histological GUS assay)", "format": "cell-based, Brassica rapa ssp. oleifera", "details": "for Average %: average of cultivars"}, "Agrobacterium": {"system": "Agrobacterium", "details": "5 mg/l (30 μM); MS medium during co-cultivation with plant explants", "source_text": "We have transformed inflorescence stem segments of turnip rape using different concentrations of silver nitrate and sealed plates with plant explants by parafilm or porous paper tape. Transformation efficiency was examined in histological GUS assay 4 days after co-cultivation. Transformation efficiency is shown in Table 4 as proportion of explants with blue inclusions in the calli per all explants (also in %)."}, "[3]": {"details": "selection on 20 mg/l, cultivars Sisu and Valtti"}, "[4]": {"details": "100 μM AS added in MS medium during inoculation and cocultivation, cv. Sisu"}, "[5]": {"details": "100 μM AS added in MS medium during inoculation and cocultivation, cv. Valtti"}, "[6]": {"details": "100 μM AS in MS medium and Agrobacterium grown one night with 100 μM acetosyringone, cv. Sisu"}, "[7]": {"details": "100 μM AS in MS medium and Agrobacterium grown one night with 100 μM acetosyringone, cv. Valtti"}},
  "data": [
    {"compound": "CO/N=C(\\C(=O)N[C@@H]1C(=O)N2C(C(=O)O)=C(COC(C)=O)CS[C@H]12)c1csc(N)n1", "note": "[Claforan, cefotaxim]", "values": [
      {"measurement": "recovering of transgenic shoots after inoculation with Agrobacteria", "setting": "[1]; claforan used to prevent Agrobacterium growth", "value": "full block of recovering of transgenic shoots"},
      {"measurement": "decrease of shoot regeneration frequency compared to carbenicillin", "setting": "explants of turnip rape; claforan 500 mg/l vs carbenicillin 200 mg/l, data not shown", "value": "2-5 times"}
    ]},
    {"compound": "NC[C@H]1O[C@H](O[C@H]2[C@H](O)[C@@H](O[C@H]3O[C@H](CO)[C@@H](O)[C@H](N)[C@H]3O)[C@H](N)C[C@@H]2N)[C@H](O)[C@@H](O)[C@@H]1O", "note": "[Kanamycin]", "values": [
      {"measurement": "escape proportion", "setting": "[1]; selection of transgenic shoots", "value": "80-90%"},
      {"measurement": "Escapes per green shoots", "setting": "[1]; [3]", "value": "52/59"},
      {"measurement": "Escapes per green shoots %", "setting": "[1]; [3]", "value": 88, "unit": "%"},
      {"measurement": "GUS positive per all explants", "setting": "[1]; [3]", "value": "7/182"},
      {"measurement": "GUS positive per all explants %", "setting": "[1]; [3]", "value": 4, "unit": "%"},
      {"measurement": "Green shoots per all explants", "setting": "[1]; [3]", "value": "59/182"},
      {"measurement": "Green shoots per all explants %", "setting": "[1]; [3]", "value": 32, "unit": "%"}
    ]},
    {"compound": "O=[N+]([O-])[O-].[Ag+]", "note": "[AgNO3, silver nitrate]", "values": [
      {"measurement": "Average %", "setting": "[2]; 5 mg/l AgNO3", "value": 29.5, "unit": "%"},
      {"measurement": "GUS +/all %", "setting": "[2]; 5 mg/l AgNO3, cv. Sisu", "value": 27.1, "unit": "%"},
      {"measurement": "GUS +/all", "setting": "[2]; 5 mg/l AgNO3, cv. Sisu, 4 days after co-cultivation", "value": "19/70"},
      {"measurement": "GUS +/all", "setting": "[2]; 5 mg/l AgNO3, cv. Valtti", "value": "14/37"},
      {"measurement": "GUS +/all %", "setting": "[2]; 5 mg/l AgNO3, cv. Valtti", "value": 37.8, "unit": "%"},
      {"measurement": "Average %", "setting": "[2]; 10 mg/l AgNO3", "value": 37.6, "unit": "%"},
      {"measurement": "GUS +/all", "setting": "[2]; 10 mg/l AgNO3, cv. Sisu", "value": "15/53"},
      {"measurement": "GUS +/all %", "setting": "[2]; 10 mg/l AgNO3, cv. Sisu", "value": 28.3, "unit": "%"},
      {"measurement": "GUS +/all", "setting": "[2]; 10 mg/l AgNO3, cv. Valtti", "value": "15/32"},
      {"measurement": "GUS +/all %", "setting": "[2]; 10 mg/l AgNO3, cv. Valtti", "value": 46.9, "unit": "%"},
      {"measurement": "Average %", "setting": "[2]; 15 mg/l AgNO3", "value": 37.6, "unit": "%"},
      {"measurement": "GUS +/all", "setting": "[2]; 15 mg/l AgNO3, cv. Sisu", "value": "17/40"},
      {"measurement": "GUS +/all %", "setting": "[2]; 15 mg/l AgNO3, cv. Sisu", "value": 42.5, "unit": "%"},
      {"measurement": "GUS +/all", "setting": "[2]; 15 mg/l AgNO3, cv. Valtti", "value": "14/43"},
      {"measurement": "GUS +/all %", "setting": "[2]; 15 mg/l AgNO3, cv. Valtti", "value": 32.6, "unit": "%"},
      {"measurement": "effect on transformation", "setting": "[2]; silver nitrate in the cultivation medium", "value": "does not have a negative effect on transformation"},
      {"measurement": "Shoot regeneration optimum concentration", "setting": "explants of turnip rape", "value": "5 to 10", "unit": "mg/L"},
      {"measurement": "effect of high concentrations on cultivated calli", "setting": "explants of turnip rape", "value": "browning and partial necrosis of cultivated calli"},
      {"measurement": "effect on Agrobacterium growth", "setting": "Agrobacterium", "value": "suppresses Agrobacterium growth"}
    ]},
    {"compound": "c1coc(CNc2ncnc3[nH]cnc23)c1", "note": "[kinetin]", "values": [
      {"measurement": "effect on shoot regeneration relative to BAP and NAA", "setting": "explants of turnip rape; data not shown", "value": "less effective than BAP and NAA"}
    ]},
    {"compound": "COc1cc(C(C)=O)cc(OC)c1O", "note": "[AS, 3,5-dimethoxy-4-hydroxyacetophenon]", "values": [
      {"measurement": "Average %", "setting": "[2]; 100 μM AS added in MS medium during inoculation and cocultivation", "value": 41.6, "unit": "%"},
      {"measurement": "GUS +/all", "setting": "[2]; [4]", "value": "24/65"},
      {"measurement": "GUS +/all %", "setting": "[2]; [4]", "value": 36.9, "unit": "%"},
      {"measurement": "GUS +/all", "setting": "[2]; [5]", "value": "36/78"},
      {"measurement": "GUS +/all %", "setting": "[2]; [5]", "value": 46.2, "unit": "%"},
      {"measurement": "Average %", "setting": "[2]; 100 μM AS in MS medium and Agrobacterium grown one night with 100 μM acetosyringone", "value": 46.6, "unit": "%"},
      {"measurement": "GUS +/all", "setting": "[2]; [6]", "value": "29/65"},
      {"measurement": "GUS +/all %", "setting": "[2]; [6]", "value": 44.6, "unit": "%"},
      {"measurement": "GUS +/all", "setting": "[2]; [7]", "value": "35/72"},
      {"measurement": "GUS +/all %", "setting": "[2]; [7]", "value": 48.6, "unit": "%"}
    ]},
    {"compound": "O=C(O)Cc1c[nH]c2ccccc12", "note": "[IAA, indole-3-acetic acid]", "values": [
      {"measurement": "effect on shoot regeneration relative to BAP and NAA", "setting": "explants of turnip rape; data not shown", "value": "less effective than BAP and NAA"}
    ]},
    {"compound": "CC1(C)S[C@@H]2[C@H](NC(=O)C(C(=O)O)c3ccccc3)C(=O)N2[C@H]1C(=O)O", "note": "(some centres unmarked) [carbenicillin]", "values": [
      {"measurement": "effect on regeneration", "setting": "explants of turnip rape; 200 mg/l, data not shown", "value": "does not have an apparent negative effect on regeneration"}
    ]}
  ]
}
